According to patent US9656988B2 (Pharmacyclics LLC, priority 2013, dated 2017):
Read-outs that look alike come from different tables or passages of the source.

Molecular target: BTK (Homo sapiens (Human), UniProt Q06187)
Test: Btk in vitro inhibitory activity (one of Method A TR-FRET, Method B electrophoretic mobility shift, Method C radiometric filter binding)
Format: biochemical
[1] = determined using one of the methods of Example 355a, 355b and 355c, read-out: BTK IC50

BTK, sequence (Q06187 whole entry): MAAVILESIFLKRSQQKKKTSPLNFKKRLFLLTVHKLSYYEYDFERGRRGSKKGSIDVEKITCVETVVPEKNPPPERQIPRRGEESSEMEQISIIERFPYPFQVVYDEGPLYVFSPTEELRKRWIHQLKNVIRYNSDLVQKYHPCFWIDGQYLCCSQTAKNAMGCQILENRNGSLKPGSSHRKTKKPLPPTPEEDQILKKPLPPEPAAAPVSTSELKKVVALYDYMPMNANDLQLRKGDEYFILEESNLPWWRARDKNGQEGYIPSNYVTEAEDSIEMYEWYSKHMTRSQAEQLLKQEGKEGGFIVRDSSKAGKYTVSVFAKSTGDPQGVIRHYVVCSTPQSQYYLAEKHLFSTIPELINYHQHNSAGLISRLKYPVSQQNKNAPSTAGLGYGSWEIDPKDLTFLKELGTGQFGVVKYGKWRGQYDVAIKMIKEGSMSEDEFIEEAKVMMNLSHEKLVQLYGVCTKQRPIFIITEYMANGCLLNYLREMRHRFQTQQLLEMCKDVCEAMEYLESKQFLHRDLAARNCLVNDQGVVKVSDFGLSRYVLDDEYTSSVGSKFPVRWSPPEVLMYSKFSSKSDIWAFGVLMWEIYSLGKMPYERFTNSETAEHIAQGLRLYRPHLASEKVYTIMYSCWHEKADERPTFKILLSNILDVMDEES

Row | SMILES | IC50 [1] | IC50 (read-out: Btk (IC50)) | IC50 (Btk (IC50))
1 | CCN1CCN([C@@H]2CCCN(c3cnc(C(N)=O)c(Nc4ccc(C5CCN(C6CCCC6)CC5)cc4)n3)C2)C1=O [Example 275, (R)-3-(4-(1-cyclopentylpiperidin-4-yl)phenylamino)-5-(3-(3-ethyl-2-oxoimidazolidin-1-yl)piperidin-1-yl)pyrazine-2-carboxamide] | < 10 nM | < 10 nM | –
2 | CCN1CCN([C@@H]2CCCN(c3cnc(C(N)=O)c(Nc4ccc(C5(C)CCN(C6CC6)CC5)cc4)n3)C2)C1=O [Example 276, (R)-3-(4-(1-cyclopropyl-4-methylpiperidin-4-yl)phenylamino)-5-(3-(3-ethyl-2-oxoimidazolidin-1-yl)piperidin-1-yl)pyrazine-2-carboxamide] | < 10 nM | < 10 nM | –
3 | NC(=O)c1ncc(N2CCC[C@@H](N3CCN(C4CC4)C3=O)C2)nc1Nc1ccc(C2CCN(C3CCCC3)CC2)cc1 [Example 277, (R)-3-(4-(1-cyclopentylpiperidin-4-yl)phenylamino)-5-(3-(3-cyclopropyl-2-oxoimidazolidin-1-yl)piperidin-1-yl)pyrazine-2-carboxamide] | < 10 nM | < 10 nM | –
4 | NC(=O)c1ncc(N2CCC[C@@H](N3CCN(C4CC4)C3=O)C2)nc1Nc1ccc(C2CCN(C3CCC3)CC2)cc1 [Example 278, (R)-3-(4-(1-cyclobutylpiperidin-4-yl)phenylamino)-5-(3-(3-cyclopropyl-2-oxoimidazolidin-1-yl)piperidin-1-yl)pyrazine-2-carboxamide] | < 10 nM | < 10 nM | –
5 | CC1(c2ccc(Nc3nc(N4CCC[C@@H](N5CCN(C6CC6)C5=O)C4)cnc3C(N)=O)cc2)CCN(C2CC2)CC1 [Example 279, (R)-5-(3-(3-cyclopropyl-2-oxoimidazolidin-1-yl)piperidin-1-yl)-3-(4-(1-cyclopropyl-4-methylpiperidin-4-yl)phenylamino)pyrazine-2-carboxamide] | – | < 10 nM | –
6 | C[C@@H]1[C@H](N2CCCN(C)C2=O)CCCN1c1cnc(C(N)=O)c(Nc2ccc(C3CCN(C4CCCC4)CC3)cc2)n1 [Example 281, 3-(4-(1-cyclopentylpiperidin-4-yl)phenylamino)-5-((2R,3R)-2-methyl-3-(3-methyl-2-oxotetrahydropyrimidin-1(2H)-yl)piperidin-1-yl)pyrazine-2-carboxamide] | < 10 nM | – | < 10 nM
7 | CN1CCCN([C@@H]2CCCN(c3cnc(C(N)=O)c(Nc4ccc(C5CCN(C6CCCC6)CC5)cc4)n3)C2)C1=O [Example 282, (R)-3-(4-(1-cyclopentylpiperidin-4-yl)phenylamino)-5-(3-(3-methyl-2-oxotetrahydropyrimidin-1(2H)-yl)piperidin-1-yl)pyrazine-2-carboxamide] | < 10 nM | < 10 nM | –
8 | CN1CCCN([C@@H]2CCCN(c3cnc(C(N)=O)c(Nc4ccc(C5(C)CCN(C6CCCC6)CC5)cc4)n3)C2)C1=O [Example 283, (R)-3-(4-(1-cyclopentyl-4-methylpiperidin-4-yl)phenylamino)-5-(3-(3-methyl-2-oxotetrahydropyrimidin-1(2H)-yl)piperidin-1-yl)pyrazine-2-carboxamide] | < 10 nM | < 10 nM | –
9 | CN1CCCN([C@@H]2CCCN(c3cnc(C(N)=O)c(Nc4ccc(C5CCN(C6CC6)CC5)cc4)n3)C2)C1=O [Example 284, (R)-3-(4-(1-cyclopropylpiperidin-4-yl)phenylamino)-5-(3-(3-methyl-2-oxotetrahydropyrimidin-1(2H)-yl)piperidin-1-yl)pyrazine-2-carboxamide] | < 10 nM | < 10 nM | –
10 | CN1CCCN([C@@H]2CCCN(c3cnc(C(N)=O)c(Nc4ccc(C5(C)CCN(C6CC6)CC5)cc4)n3)C2)C1=O [Example 285, (R)-3-(4-(1-cyclopropyl-4-methylpiperidin-4-yl)phenylamino)-5-(3-(3-methyl-2-oxotetrahydropyrimidin-1(2H)-yl)piperidin-1-yl)pyrazine-2-carboxamide] | < 10 nM | < 10 nM | –
11 | NC(=O)c1ncc(N2CCC[C@H]3NCC[C@H]32)nc1Nc1ccc(C2CCN(C3CCCC3)CC2)cc1 [Example 286, 3-(4-(1-cyclopentylpiperidin-4-yl)phenylamino)-5-((3aR,7aR)-dihydro-1H-pyrrolo[3,2-b]pyridin-4(2H,5H,6H,7H,7aH)-yl)pyrazine-2-carboxamide] | 10 to 100 nM | 10 to 100 nM | –
12 | CN(C)C(=O)N1CCC[C@@H]2[C@H]1CCCN2c1cnc(C(N)=O)c(Nc2ccc(C3CCN(C4CCCC4)CC3)cc2)n1 [Example 289, (4aR,8aR)-5-(5-carbamoyl-6-(4-(1-cyclopentylpiperidin-4-yl)phenylamino)pyrazin-2-yl)-N,N-dimethyloctahydro-1,5-naphthyridine-1(2H)-carboxamide] | 10 to 100 nM | – | –
13 | C[C@@H]1CCN(c2cnc(C(N)=O)c(Nc3ccc(C4CCN(C5CCCC5)CC4)cc3)n2)C[C@@H]1NC(=O)N(C)C [Example 290, 3-(4-(1-cyclopentylpiperidin-4-yl)phenylamino)-5-((3R,4R)-3-(3,3-dimethylureido)-4-methylpiperidin-1-yl)pyrazine-2-carboxamide] | 10 to 100 nM | – | –
14 | NC(=O)c1ncc(N2CCC[C@@H](NC=O)C2)nc1Nc1ccc(C2CCN(C3CCCC3)CC2)cc1 [Example 295, (R)-3-(4-(1-cyclopentylpiperidin-4-yl)phenylamino)-5-(3-formamidopiperidin-1-yl)pyrazine-2-carboxamide] | < 10 nM | < 10 nM | –
15 | CCC(=O)N[C@@H]1CCCN(c2cnc(C(N)=O)c(Nc3ccc(C4CCN(C5CCCC5)CC4)cc3)n2)C1 [Example 296, (R)-3-(4-(1-cyclopentylpiperidin-4-yl)phenylamino)-5-(3-propionamidopiperidin-1-yl)pyrazine-2-carboxamide] | < 10 nM | < 10 nM | –
16 | CCN(C)C(=O)N[C@@H]1CCCN(c2cnc(C(N)=O)c(Nc3ccc(C4CCN(C5CCCC5)CC4)cc3)n2)C1 [Example 297, (R)-3-(4-(1-cyclopentylpiperidin-4-yl)phenylamino)-5-(3-(3-ethyl-3-methylureido)piperidin-1-yl)pyrazine-2-carboxamide] | < 10 nM | < 10 nM | –
17 | CCOC(=O)N[C@@H]1CCCN(c2cnc(C(N)=O)c(Nc3ccc(C4CCN(C5CCCC5)CC4)cc3)n2)C1 [Example 298, (R)-ethyl 1-(5-carbamoyl-6-(4-(1-cyclopentylpiperidin-4-yl)phenylamino)pyrazin-2-yl)piperidin-3-ylcarbamate] | < 10 nM | < 10 nM | –
18 | NC(=O)c1ncc(N2CCC[C@@H](NC(=O)C3CC3)C2)nc1Nc1ccc(C2CCN(C3CCCC3)CC2)cc1 [Example 299, (R)-3-(4-(1-cyclopentylpiperidin-4-yl)phenylamino)-5-(3-(cyclopropanecarboxamido)piperidin-1-yl)pyrazine-2-carboxamide] | < 10 nM | < 10 nM | –
19 | CN(C)S(=O)(=O)N[C@@H]1CCCN(c2cnc(C(N)=O)c(Nc3ccc(C4CCN(C5CCCC5)CC4)cc3)n2)C1 [Example 302, (R)-3-(4-(1-cyclopentylpiperidin-4-yl)phenylamino)-5-(3-(N,N-dimethylsulfamoylamino)piperidin-1-yl)pyrazine-2-carboxamide] | 10 to 100 nM | – | –

Second part, the compound after the results:

Row | IC50 [1] | IC50 (read-out: Btk (IC50)) | IC50 (Btk (IC50)) | SMILES
20 | 10 to 100 nM | – | 10 to 100 nM | CS(=O)(=O)N[C@@H]1CCCN(c2cnc(C(N)=O)c(Nc3ccc(C4CCN(C5CCCC5)CC4)cc3)n2)C1 [Example 300, (R)-3-(4-(1-cyclopentylpiperidin-4-yl)phenylamino)-5-(3-(methylsulfonamido)piperidin-1-yl)pyrazine-2-carboxamide]
21 | 10 to 100 nM | – | – | CCS(=O)(=O)N[C@@H]1CCCN(c2cnc(C(N)=O)c(Nc3ccc(C4CCN(C5CCCC5)CC4)cc3)n2)C1 [Example 301, (R)-3-(4-(1-cyclopentylpiperidin-4-yl)phenylamino)-5-(3-(ethylsulfonamido)piperidin-1-yl)pyrazine-2-carboxamide]
22 | < 10 nM | < 10 nM | – | NC(=O)c1ncc(N2CCC[C@@H](NC(=O)c3ccccc3)C2)nc1Nc1ccc(C2CCN(C3CCCC3)CC2)cc1 [Example 303, (R)-5-(3-benzamidopiperidin-1-yl)-3-(4-(1-cyclopentylpiperidin-4-yl)phenylamino)pyrazine-2-carboxamide]
23 | < 10 nM | < 10 nM | – | NC(=O)c1ncc(N2CCC[C@@H](NC(=O)c3cccnc3)C2)nc1Nc1ccc(C2CCN(C3CCCC3)CC2)cc1 [Example 304, (R)-3-(4-(1-cyclopentylpiperidin-4-yl)phenylamino)-5-(3-(nicotinamido)piperidin-1-yl)pyrazine-2-carboxamide]
24 | < 10 nM | < 10 nM | – | NC(=O)c1ncc(N2CCC[C@@H](NC(=O)c3cncc(F)c3)C2)nc1Nc1ccc(C2CCN(C3CCCC3)CC2)cc1 [Example 305, (R)-3-(4-(1-cyclopentylpiperidin-4-yl)phenylamino)-5-(3-(5-fluoronicotinamido)piperidin-1-yl)pyrazine-2-carboxamide]
25 | < 10 nM | < 10 nM | – | NC(=O)c1ncc(N2CCC[C@@H](N3Cc4ccccc4C3=O)C2)nc1Nc1ccc(C2CCN(C3CCCC3)CC2)cc1 [Example 307, (R)-3-(4-(1-cyclopentylpiperidin-4-yl)phenylamino)-5-(3-(1-oxoisoindolin-2-yl)piperidin-1-yl)pyrazine-2-carboxamide]
26 | 100 to 1000 nM | 100 to 1000 nM | – | NC(=O)c1ncc(N2CCC[C@@H](NC(=O)C3CC4(CCC4)C3)C2)nc1Nc1ccc(C2CCN(C3CC3)CC2)cc1 [Example 309, 3-(4-(1-cyclopropylpiperidin-4-yl)phenylamino)-5-((3R)-3-(spiro[3.3]heptane-2-carboxamido)piperidin-1-yl)pyrazine-2-carboxamide]
27 | 10 to 100 nM | 10 to 100 nM | – | NC(=O)c1ncc(N2CCC[C@@H](NC(=O)C3CCCC3)C2)nc1Nc1ccc(C2CCN(C3CC3)CC2)cc1 [Example 310, (R)-5-(3-(cyclopentanecarboxamido)piperidin-1-yl)-3-(4-(1-cyclopropylpiperidin-4-yl)phenylamino)pyrazine-2-carboxamide]
